Experimental data from patent publication US4349685A (priority 1981, dated 1982).

Legend:
[1] = test system: causative organism of wheat leaf rust; test: Control of wheat leaf rust by aqueous suspension of the compound; format: in vivo; settings: 300 parts per million by weight, sole compound
[2] = test system: causative organism of downey mildew; test: Control of downey mildew on host plants (root drench and foliar treatment); format: in vivo; settings: 500 parts per million by weight solution; root system application and foliar treatment of host plants
From the text: Solutions containing 500 parts per million by weight of the compound were formulated and applied to the host plants through two different modes of administration. First, the solution was applied to the root system of the host plants by drenching the chemicals into the pots or by placing the pots into larger cups containing the solution of the compound. Second, a foliar chemical treatment was applied to the host plants. The plants were then exposed to the pathogen and placed under conditions suitable for infection and development of the disease.

Structure (SMILES) | kill of the causative organism of wheat leaf rust [1] | control of the causative organism of downey mildew [2] [%]
CCC(=O)OCCNC(=O)Oc1ccc2oc(=O)sc2c1 [Example 1, 5-[2-(Propionyloxy)ethylcarbamoyloxy]-1,3-benzoxathiol-2-one] | substantially complete kill | –
CCc1cccc(NC(=O)Oc2ccc3oc(=O)sc3c2)c1 [Example 4, 5-[(3-Ethylphenyl)carbamoyloxy]-1,3-benzoxathiol-2-one] | – | 90
